Among the data in the RepoRT retention time repository (doi:10.1021/acs.analchem.1c00972) are LC retention time values, retold here.

Structures are written as SMILES.

The first data set can be described thus: RP, Waters ACQUITY UPLC BEH C18, 100 × 1 mm, 1.7 µm, 50 °C, 0.3 mL/min, estimated dead time 0.17 min; A: water + 10 mM ammonium bicarbonate; B: 10% water + 90% methanol + 10 mM ammonium bicarbonate; gradient (min/%B) 0/0 15/100 21/100 22/0 30/0. Conditions: stereoisomer not certain.
Consider `CNCC(O)c1ccc(O)c(O)c1` (stereo unspecified) [Epinephrine], for which the LC retention time is 13.9 min.
Regarding `Nc1ccccc1C(=O)O` [Anthranilic acid], the LC retention time is 2.1 min.
`Oc1ccc(Cl)cc1Cl` [2,4-Dichlorophenol]: the LC retention time was 12.3 min.
`CCCCOCCOCCOCc1cc2c(cc1CCC)OCO2` [Piperonyl butoxide]: the LC retention time is 15.3 min.
With `COP(=O)(OC)OC(C)=CC(=O)N(C)C` [Dicrotophos], the LC retention time is 8.69 min.
As for `CCCCOC(=O)C=Cc1ccccc1` [Butyl cinnamate], the LC retention time is 14 min.
Take `On1ccccc1=S` [Pyrithione]: the LC retention time is 9.52 min.
In the case of `Cc1cc(C)nc(NS(=O)(=O)c2ccc(N)cc2)n1` [Sulfamethazine], the LC retention time is 7.4 min.
Still for that read-out and setting: the result for `CC(C)NCC(O)c1ccc(NS(C)(=O)=O)cc1` (stereo unspecified) [Sotalol] reads 7.74 min; that for `c1ccc2scnc2c1` [Benzothiazol], 11.1 min; that for `O=C1NCCN1Cc1ccc(Cl)nc1` [Imidacloprid-urea], 8.68 min.
Regarding `O=S(=O)(O)c1ccccc1C=Cc1ccc(-c2ccc(C=Cc3ccccc3S(=O)(=O)O)cc2)cc1` [Fluorescent brightener 351], the LC retention time is 13.5 min.
With `Cc1cc(Cl)ccc1N` [4-Chloro-2-methylaniline], the LC retention time was 12.3 min.
For the compound `CCOP(=S)(OCC)SCSP(=S)(OCC)OCC` [Ethion], the LC retention time was 17.3 min.
As to `CCC(CO)NCCNC(CC)CO` (stereo unspecified) [Ethambutol], the LC retention time is 8.12 min.
Consider `N#CSCSc1nc2ccccc2s1` [TCMTB], for which the LC retention time was 14.1 min.
For `CCN(CC)CC(=O)Nc1c(C)cccc1C` [Lidocaine], the LC retention time is 14.9 min.
With `Cc1cc(C)nc(Nc2ccccc2)n1` [Pyrimethanil], the LC retention time was 14.2 min.
Turning to `Cc1ccccc1N=C=O` [o-Tolyl isocyanate], the LC retention time was 8.18 min.
Still for that read-out and setting: as for `Cc1c(C(=O)c2c[nH]n(C)c2=O)ccc(S(C)(=O)=O)c1C1=NOCC1` [Topramezone], the figure is 7.42 min.
For `CC(=O)c1cc2c(cc1C)C(C)(C)C(C)CC2(C)C` (stereo unspecified) [Tonalide], the LC retention time was 18.2 min.
For `OCCc1ccccn1` [2-(2-Pyridyl)ethanol], the LC retention time was 6.8 min.
`CCOc1ccc(NC(C)=O)cc1` [Phenacetin]: the LC retention time was 9.9 min.
As for `CCCCCCS(=O)(=O)O` [1-Hexanesulfonic acid], the LC retention time was 9.17 min.
With `FC(F)C(F)(F)OCC(Cn1cncn1)c1ccc(Cl)cc1Cl` (stereo unspecified) [Tetraconazole], the LC retention time is 15.3 min.
`CCN(CC)C(=O)c1cccc(C)c1` [DEET]: the LC retention time is 13.4 min.
As to `C[N+](C)(C)C[C@H](O)CC(=O)[O-]` [L-Carnitin], the LC retention time is 9.28 min.
Take `CCOc1nc2cccc(C(=O)O)c2n1Cc1ccc(-c2ccccc2-c2noc(=O)[nH]2)cc1` [Azilsartan]: the LC retention time was 9.52 min.
With `CCNc1nc(NCC)nc(OC)n1` [Simeton], the LC retention time was 11.6 min.
`CCN(CC)C(=O)C(C)Oc1cccc2ccccc12` (stereo unspecified) [Napropamide]: the LC retention time is 15.1 min.
As for `NC12CC3CC(CC(C3)C1)C2` [Amantadine], the LC retention time is 10.5 min.
Consider `CCOP(=S)(OCC)Oc1ccc2c(C)c(Cl)c(=O)oc2c1` [Coumaphos], for which the LC retention time was 15.9 min.
The same measure, in the same setting: as for `CC1=C(C(=O)O)N2C(=O)C(NC(=O)C(N)c3ccccc3)C2SC1` (stereo unspecified) [Cefalexin], the figure is 7.52 min; as for `CC(Oc1c(Cl)cc(Cl)cc1Cl)C(=O)O` (stereo unspecified) [2,4,6-Fenoprop], 2 min.

The next data set can be described thus: RP, Waters ACQUITY UPLC BEH C18, 100 × 1 mm, 1.7 µm, 50 °C, 0.3 mL/min, estimated dead time 0.17 min; A: water + 0.1% formic acid + 20 mM ammonium formate; B: methanol + 0.1% formic acid + 20 mM ammonium formate; gradient (min/%B) 0/0 15/100 21/100 22/0 30/0. Conditions: stereoisomer not certain.
As to `CNCCC(Oc1ccc(C(F)(F)F)cc1)c1ccccc1` (stereo unspecified) [Fluoxetine], the LC retention time was 13.2 min.
As to `CC(CCC(=O)O)C1CCC2C3C(O)CC4CC(O)CCC4(C)C3CCC12C` (stereo unspecified) [Chenodeoxycholic acid], the LC retention time is 17.1 min.
Still for that read-out and setting: the result for `O=c1cc(-c2ccc(O)c(O)c2)oc2cc(OC3OC(CO)C(O)C(O)C3O)cc(O)c12` (stereo unspecified) [Luteolin 7-glucoside] reads 9.71 min.
Consider `O=c1ccc(=O)[nH][nH]1` [Maleic acid hydazide], for which the LC retention time is 16.4 min.
`CCS(=O)(=O)CCSP(=O)(OC)OC` [Demeton-S-methyl-sulfone]: the LC retention time is 7.78 min.
As for `[O-][n+]1nc(-n2ccnc2)nc2ccc(Cl)cc21` [Triazoxide], the LC retention time was 11.8 min.
For the compound `CSc1nc(NC(C)C)nc(NC(C)C)n1` [Prometryne], the LC retention time is 14.2 min.
Regarding `Cn1cc(C(=O)Nc2ccc(F)cc2-c2ccc(Cl)c(Cl)c2)c(C(F)F)n1` [Bixafen], the LC retention time was 15.4 min.
Turning to `O=C(O)c1cc2ccccc2[nH]1` [Indole-2-carboxylic acid/Indole-3-carboxylic acid], the LC retention time was 7.8 min.
For `NS(=O)(=O)Cc1noc2ccccc12` [Zonisamide], the LC retention time is 8.02 min.
On to `CC(O)C(NC(=O)Nc1ncnc2c1ncn2C1OC(CO)C(O)C1O)C(=O)O` (stereo unspecified) [N6-Threonylcarbamoyladenosine], for which the LC retention time is 7.6 min.
As to `O=C1CCCC=CCCCCCCCCCC1` [Velvione], the LC retention time was 18.1 min.
Take `CC1OC(OC2CCC3(C=O)C4CCC5(C)C(C6=CC(=O)OC6)CCC5(O)C4CCC3(O)C2)C(O)C(O)C1O` (stereo unspecified) [Convallatoxin]: the LC retention time is 11.2 min.
Same read-out and setting: as for `CCOC(=O)CC(SP(=S)(OC)OC)C(=O)OCC` (stereo unspecified) [Malathion], the figure is 14.3 min; as for `Nc1cc(Cl)cc(Cl)c1` [3,5-Dichloroaniline], 17.6 min.
As for `COCCOCCOC` [Diglyme], the LC retention time was 7.31 min.
On the same count and under the same terms, as for `O=C(O)CC1(C(=O)O)CCCCC1` [Gabapentin Related Compound E], the figure is 9.9 min; as for `CC12CCC(=O)C=C1CCC1C2CCC2(C)C(OC3OC(C(=O)O)C(O)C(O)C3O)CCC12` (stereo unspecified) [testosterone_glucuronide], 13.6 min.
`CCc1cccc(CC)c1N(COC)C(=O)CS(=O)(=O)O` [Alachlor tert-sulfonic acid (ESA)]: the LC retention time is 11.8 min.
Turning to `c1ccc2c(c1)Nc1ccccc1S2` [Phenothiazine], the LC retention time was 14.9 min.
Consider `CCC(C=CC(C)C1CCC2C3CC=C4CC(O)CCC4(C)C3CCC12C)C(C)C` (stereo unspecified) [Stigmasterol], for which the LC retention time is 21.3 min.
Same read-out and setting: the result for `CCOC(=O)OC1(C(=O)COC(=O)CC)CCC2C3CCC4=CC(=O)C=CC4(C)C3C(O)CC21C` (stereo unspecified) [Prednicarbate] reads 15.3 min; that for `Nc1nc2c(ncn2CCC(CO)CO)c(=O)[nH]1` [Penciclovir], 3.58 min.
Consider `CC(C)Nc1nc(N)[nH]c(=O)n1` [Atrazin-desethyl-2-hydroxy], for which the LC retention time was 4.31 min.
Consider `O=[N+]([O-])Nc1nccn1Cc1ccc(Cl)nc1` [Imidacloprid-olefin], for which the LC retention time is 7.92 min.
Consider `O=S1(=O)CCCC1` [Sulfolane], for which the LC retention time was 2.73 min.
Turning to `O=c1c2ccccc2oc2ccccc12` [Xanthon], the LC retention time is 13.6 min.
